Laboratory results from patent US20140235630A1, “COMPOSITIONS AND METHODS FOR THE TREATMENT OF PROLIFERATIVE DISEASES” (Beth Israel Deaconess Medical Center, Inc., priority 2011, published 2014).

Tests used:
[1] = test system: tumor microvasculature (CD31) of MMTV-CreBRCA1^f/fp53+/− tumors; experiment: Tumor vascularization: gross pathology, anti-CD31 stain, Chalkley count; format: in vivo, mouse
Description: All animal experiments were conducted in accordance with IACUC-approved protocols at Beth Israel Deaconess Medical Center, Boston, and at the University of Vall d'Hebron, Barcelona, Spain. Female […] were obtained by breeding BRCA1 conditional knockout mice from the NIH repository (01XC8, strain C57BL/6) (Xu et al. Nat. Genet., 22: 37-43, 1999); with MMTV-Cre (Jackson Laboratory B6129-TgN(MMTV-Cre)4Mam) (Wagner et al. Nucleic Acids Res., 25: 4323-4330, 1997) and p53 knockout (Taconic Farms, P53N12-M, C57BL/6) (Donehower et al. Nature, 356: 215-221, 1992). […] The floxed or wild type status of Brca1, the presence of the MMTV-Cre transgene and the p53 heterozygosity were determined by PCR. Mice were examined for the occurrence of tumors twice weekly. When tumormetrics were performed, the length and width of the tumor was determined using calipers, and the tumor volume was determined (width^2×length/2). Tumor volume was used as a measure of growth and was recorded as ratio to tumor volume at diagnosis. […] Proc. Natl. Acad. Sci. USA., 105: 17079-17084, 2008) and dosed at 50 mg/kg/day. For patient-derived tumor grafts consent for tumor use was obtained from patients under a protocol approved by the Vall d'Hebron Hospital Clinical Investigation Ethical Committee. Tumors were subcutaneously implanted in 6-week-old female HsdCpb:NMRI-Foxn1nu mice (Harlan Laboratories, Italy) Animals were supplemented with 1 μM estradiol (Sigma) in the drinking water. After tumor graft growth, tumor tissue was re-implanted into recipient mice, which were randomized upon implant growth. For immunohistochemistry we used anti-cleaved caspase 3 (CC3) (9661S, Cell Signalling, Rabbit polyclonal Asp175), anti-Ki67 (9106-S; Thermo Scientific, Rabbit monoclonal SP6). All other antibodies used are described in the immunoblotting section below. All immunohistochemistries were done as described previously (Burga et al. Breast Cancer Res., 13:[…], 2011) including antigen retrieval with a citrate-buffer. […]

HCC1937 cells = experiment: DNA damage response immunoblots with or without ionizing radiation (10 Gy); format: cell-based, human
Description: FIG. 5A are immunoblots showing the effects of Compound A, ATM inhibitor KU-55933, and their combination on the DNA damage response. HCC1937 were treated for 18 hours with Compound A at 2.5 μM, KU55933 at 10 μM, or their combination, subjected to ionizing irradiation with 10 Gy or mock, lysed 6 hours later, and subjected to immunoblotting. […] Immunoblots were performed using the Nupage System (Invitrogen). The protein concentration was determined using Bradford reagent (Biorad). A total of 20 μg of protein were loaded, except for PAR, Phospho ATM and Phospho DNA-PK/PRKDC western blots, where 40 μg were loaded. Tumor tissue lysates were prepared similarly with the exception of tissue homogenization by using an electric homogenizer for 30 secs after addition of the lysis buffer. Primary antibodies used for western blotting were total AKT (9272), Cleaved […] 3 (9661), total ERK (4695), Phospho AKT Ser473 (4058), Phospho ERK Thr202/Tyr204 (9106), Phospho-Histone H2AX Ser139 (2577), PTEN (9559) from Cell Signaling. Phospho ATM […] (2152-1), Phospho DNA-PK/PRKDC […] (3892-1) from Epitomics, Inc. CD31 (ab28364), Actin (ab6276), INPP4B (ab81269) from Abcam; pADPr (sc56198) from Santacruz Biotechnology; and Ki-67 (RM-9106) was purchased from Thermo Scientific.

HCC1937 and SUM149 cells = experiment: Immunoblotting of BRCA1-mutant breast cancer cell lines treated with drugs; format: cell-based, human; details: for overall poly-ADP-ribosylation (PAR): Compound B 10 μM; for activation status of EGFR/MAPK pathways: 72 hours treatment, immunoblot
From the text: The PI3K inhibitor 5-(2,6-dimorpholinopyrimidin-4-yl)-4-(trifluoromethyl)pyridin-2-amine (Compound A) was obtained through a Material Transfer Agreement with Novartis Pharmaceuticals. Olaparib (Compound B) was purchased from LC Laboratories (Woburn, Mass.) and KU-55933 was purchased from Selleck Chemicals (Houston, Tex.). BRCA1-mutant human breast cancer cell line HCC1937 was from American Type Culture Collection; # CRL-2336, and maintained in DMEM/10% FBS and SUM149 was from Division of Signal Transduction, BIDMC, maintained in Ham's F-12 with 5% fetal bovine serum (FBS), 5 μg/ml insulin, 2 μg/ml hydrocortisone, 5 μg/ml gentamicin and 2.5 μg/ml fungizone. Cell lines were authenticated by immunoblotting for BRCA1 and PTEN and tested for absence of mycoplasma.
Cells were treated with mock, 5-(2,6-dimorpholinopyrimidin-4-yl)-4-(trifluoromethyl)pyridin-2-amine (Compound A), 4-[[3-[4-(cyclopropanecarbonyl)piperazine-1-carbonyl]-4-fluorophenyl]methyl]-2H-phthalazin-1-one (Compound B), KU-55933, or the combination and lysed in cell lysis buffer (9803, Cell Signaling) as per the manufacturer's instructions. Immunoblots were performed using the Nupage System (Invitrogen). The protein concentration was determined using Bradford reagent (Biorad). A total of 20 μg of protein were loaded, except for PAR, Phospho ATM and Phospho DNA-PK/PRKDC western blots, where 40 μg were loaded. Tumor tissue lysates were prepared similarly with the exception of tissue homogenization by using an electric homogenizer for 30 secs after addition of the lysis buffer. Primary antibodies used for western blotting were total AKT (9272), Cleaved Caspace 3 (9661), total ERK (4695), Phospho AKT Ser473 (4058), Phospho ERK Thr202/Tyr204 (9106), Phospho-Histone H2AX Ser139 (2577), PTEN (9559) from Cell Signaling. Phospho ATM Ser1981 (2152-1), Phospho DNA-PK/PRKDC Ser2056 (3892-1) from Epitomics, Inc. CD31 (ab28364), Actin (ab6276), INPP4B (ab81269) from Abcam; pADPr (sc56198) from Santacruz Biotechnology; and Ki-67 (RM-9106) was purchased from Thermo Scientific.

| SMILES | gross pathology of tumors ([1]; 50 mg/kg/day via gavage, 2 and 6 weeks) | Chalkley count of CD31-positive microvessels: size and number of blood vessels ([1]; before versus after treatment) | tumor microvasculature, anti-CD31 stain ([1]; center of tumor treated for 6 weeks) | H2AX phosphorylation in response to ionizing radiation (HCC1937 cells; 18 hours pre-treatment, 10 Gy, lysed 6 hours later) | auto-phosphorylation of DNA-PK (HCC1937 cells; Compound A 2.5 μM, 18 hours) | PAR accumulation (HCC1937 cells; Compound A 2.5 μM, KU55933 10 μM) | Rad51 accumulation in response to ionizing radiation (HCC1937 cells; pre-treatment, 10 Gy) | cleaved caspase 3 (CC3), apoptosis marker (HCC1937 and SUM149 cells; 24 hours) | overall poly-ADP-ribosylation (PAR) (HCC1937 and SUM149 cells; 24 hours, Compound A 1 μM) | H2AX phosphorylation on Serine 139 (γH2AX) (HCC1937 and SUM149 cells; 24 hours, Compound A 1 μM, Compound B 10 μM in combination) | activation status of EGFR/MAPK pathways (HCC1937 and SUM149 cells) | phosphorylation of AKT (HCC1937 and SUM149 cells; increasing concentrations, 24 hours) |
| --- | --- | --- | --- | --- | --- | --- | --- | --- | --- | --- | --- | --- |
| Nc1cc(C(F)(F)F)c(-c2cc(N3CCOCC3)nc(N3CCOCC3)n2)cn1 [Compound A, 5-(2,6-dimorpholinopyrimidin-4-yl)-4-(trifluoromethyl)pyridin-2-amine] | central pallor and, eventually, central necrosis | starkly reduced | diminished | prominent augmentation | strong increase | increased | failure to increase Rad51 | remained negative | dose dependent increase | increased with increasing concentrations | induced a compensatory activation | diminishing phosphorylation |
| O=C(c1cc(Cc2n[nH]c(=O)c3ccccc23)ccc1F)N1CCN(C(=O)C2CC2)CC1 [Compound B, 4-[[3-[4-(cyclopropanecarbonyl)piperazine-1-carbonyl]-4-fluorophenyl]methyl]-2H-phthalazin-1-one, reference compound] | – | – | – | – | – | – | – | – | completely blocked | – | did not have a discernible effect | – |
